Publication PMC11863801 (The Journal of Headache and Pain, 2025)

Biological target: NaV1.9 (Rattus norvegicus, UniProt O88457)
Experiment: whole-cell patch clamp of NaV1.9-mediated current
Assay type: cell-based

NaV1.9, sequence (O88457 whole entry): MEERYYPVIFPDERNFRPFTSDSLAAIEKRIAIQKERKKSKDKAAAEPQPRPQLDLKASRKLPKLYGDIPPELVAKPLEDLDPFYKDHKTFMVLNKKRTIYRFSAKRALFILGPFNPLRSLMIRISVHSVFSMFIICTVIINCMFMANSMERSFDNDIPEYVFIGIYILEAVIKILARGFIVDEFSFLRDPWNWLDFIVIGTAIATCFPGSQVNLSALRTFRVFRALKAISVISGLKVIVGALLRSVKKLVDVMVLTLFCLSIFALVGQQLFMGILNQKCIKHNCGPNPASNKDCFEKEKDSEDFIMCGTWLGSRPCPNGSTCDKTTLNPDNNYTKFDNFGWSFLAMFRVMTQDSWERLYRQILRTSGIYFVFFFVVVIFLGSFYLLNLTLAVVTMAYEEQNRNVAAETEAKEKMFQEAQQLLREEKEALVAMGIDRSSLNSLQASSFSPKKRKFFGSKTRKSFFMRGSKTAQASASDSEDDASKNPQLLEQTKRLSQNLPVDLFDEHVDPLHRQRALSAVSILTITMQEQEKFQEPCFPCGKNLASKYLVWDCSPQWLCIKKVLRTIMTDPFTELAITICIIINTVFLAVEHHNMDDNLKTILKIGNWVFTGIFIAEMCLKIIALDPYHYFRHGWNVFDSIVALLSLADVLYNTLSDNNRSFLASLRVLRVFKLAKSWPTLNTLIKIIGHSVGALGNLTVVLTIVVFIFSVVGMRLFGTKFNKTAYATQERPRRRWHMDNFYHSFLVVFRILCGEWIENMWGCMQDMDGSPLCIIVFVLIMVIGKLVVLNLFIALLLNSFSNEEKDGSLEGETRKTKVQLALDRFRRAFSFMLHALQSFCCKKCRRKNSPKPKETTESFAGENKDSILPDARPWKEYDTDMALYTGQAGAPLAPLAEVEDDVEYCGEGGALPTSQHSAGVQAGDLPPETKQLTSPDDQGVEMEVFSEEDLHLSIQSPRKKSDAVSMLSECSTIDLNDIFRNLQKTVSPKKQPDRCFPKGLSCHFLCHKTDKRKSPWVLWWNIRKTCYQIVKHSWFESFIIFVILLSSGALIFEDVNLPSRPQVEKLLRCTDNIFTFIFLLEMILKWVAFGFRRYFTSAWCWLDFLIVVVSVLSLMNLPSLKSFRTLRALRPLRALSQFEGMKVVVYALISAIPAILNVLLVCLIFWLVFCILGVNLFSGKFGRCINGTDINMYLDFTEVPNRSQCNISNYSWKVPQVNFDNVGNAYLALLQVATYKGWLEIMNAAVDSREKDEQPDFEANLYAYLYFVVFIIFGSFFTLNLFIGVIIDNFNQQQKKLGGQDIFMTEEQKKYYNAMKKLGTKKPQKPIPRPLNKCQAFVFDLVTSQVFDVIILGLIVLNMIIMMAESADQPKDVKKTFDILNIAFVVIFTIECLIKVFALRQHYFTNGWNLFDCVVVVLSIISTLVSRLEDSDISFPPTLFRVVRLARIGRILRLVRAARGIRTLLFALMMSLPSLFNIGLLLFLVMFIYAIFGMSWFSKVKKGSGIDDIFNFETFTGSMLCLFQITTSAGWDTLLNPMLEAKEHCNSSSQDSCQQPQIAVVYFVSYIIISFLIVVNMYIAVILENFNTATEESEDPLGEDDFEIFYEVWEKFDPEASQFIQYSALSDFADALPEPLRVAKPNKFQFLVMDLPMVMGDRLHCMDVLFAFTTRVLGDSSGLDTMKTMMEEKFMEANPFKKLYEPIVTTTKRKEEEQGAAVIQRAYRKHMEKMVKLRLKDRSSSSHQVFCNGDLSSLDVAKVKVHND

Q: C[C@]12CC[C@H](O)CC1=CC[C@@H]1[C@@H]2CC[C@]2(C)C(=O)CC[C@@H]12 [DHEA, dehydroepiandrosterone] was tested. Which IC50 did it give?
A: 49.2 µM
